This test deals with Myc-Max transcriptional activity. Nature of the test: Cignal c-Myc luciferase reporter assay in LNCaP cells. It is filed as cell-based. The following applies: Homo sapiens, LNCaP; for IC50: TABLE 2, assay not named, values match Myc-Max transcriptional activity, read-out: IC50. How it is done: Cell transfection was performed using TransIT-2020™ transfection reagents according to the manufacturer's instructions (Mirus™). LNCaP cells were plated at 10000 cells per well and treated for 1 day with the indicated concentration of compound. Myc reporter activity was measured using the Cignal Myc Reporter Assay Kit™ from Qiagen™ (#336841) according to the manufacturer's instructions. For the UBE2C reporter assay, 22rv1 cells were plated at 10000 cells per well in 96-well plates in RPMI media supplemented with 5% charcoal-stripped serum (CSS) and treated for 1 day with 1 μM, 10 μM and 25 μM of compound.
Compounds were subjected to experimental evaluation using the commercially available transcriptional assay Cignal c-Myc luciferase reporter assay in LNCaP cells. […] A transiently transfected Myc-driven luciferase reporter allowed the monitoring of Myc-regulated signal in LNCaP upon treatment with the in silico identified compounds.

Setting [1] is: 24 h, LNCaP cells, TABLE 1, read-out: Myc-Max transcriptional activity % inhibition (25 μM).
[2] abbreviates: TABLE 5, read-out: % Inhibition 25 μM.
Where [3] appears, read: TABLE 3, read-out: % Inhibition 25 μM.

Each structure is given as a SMILES string. Where two headings read alike, the source gives them in different places.

Consider `O=C1/C(=C/c2cccs2)SC(=S)N1c1cccc(O)c1` [VPC-70005], for which the IC50 was greater than 25 µM. Also, the inhibition at 25 µM (TABLE 4, read-out: % Inhibition (25 μM)) was determined as 65%. The inhibition at 25 µM under setting [1] came to 65%.

Regarding `CS(=O)(=O)Nc1ccccc1C(=O)OCc1cc(=O)oc2cc(O)ccc12` [VPC-70027], the inhibition at 25 µM by setting is: under setting [2], 53%; under setting [1], 53%. In the case of `O=C(CN1C(=O)NC2(CCCC2)C1=O)Nc1cccc(C(F)(F)F)c1` [VPC-70066], the inhibition at 25 µM was determined as 65% under setting [2] and 65% under setting [1]. With `O=C(CCc1csc(NC(=O)c2ccc(F)cc2)n1)NCCc1ccccc1` [VPC-70131], the inhibition at 25 µM under setting [2] was 50%. As for `O=C(CSCCO)Nc1ccc(C23CC4CC(CC(C4)C2)C3)cc1` [VPC-70146], the inhibition at 25 µM under setting [2] stood at 52%. In the case of `O=S(O)(=Nc1cccc2[nH]ccc12)C1CCc2n[nH]nc2C1` (centres unmarked) [VPC-70158], the inhibition at 25 µM under setting [2] was 41%.

For `Cc1ccc(Nc2ccccc2N=S(=O)(O)c2ccc(C(=O)O)cc2)cc1` [VPC-70163], under setting [2], the inhibition at 25 µM was 39%. For `O=C(NCCCc1ccccc1)NC[C@](O)(c1ccccc1)C(F)(F)F` [VPC-70205], the inhibition at 25 µM under setting [2] was 50%.

For the molecule `O=C(NCCc1c[nH]c2ccccc12)C(=O)Nc1ccc(F)cc1` [VPC-70209], the inhibition at 25 µM under setting [2] amounted to 52%. Take `C[C@@H](NC(=O)OCc1ccccc1)C(=O)NCC(=O)Nc1ccc(F)c(F)c1` [VPC-70211]: the inhibition at 25 µM under setting [2] stood at 47%.

`Cc1c(NC(=O)[C@H](C)OC(=O)c2cccc(O)c2)c(=O)n(-c2ccccc2)n1C` [VPC-70216]: under setting [2], the inhibition at 25 µM was determined as 40%.

Consider `O=C(NCCc1c[nH]c2ccccc12)c1coc2ccccc2c1=O` [VPC-70219], for which the IC50 is greater than 25 µM. For the same molecule, the inhibition at 25 µM under setting [2] turned out to be 67%. Consider `O=C(CNC(=O)NCc1ccc(F)cc1)NCc1ccc(OC(F)(F)F)cc1` [VPC-70222], for which the inhibition at 25 µM under setting [2] is 68%. As to `Cc1ccc(C(=O)NCC(=O)NCC(=O)Nc2ccc(F)c(F)c2F)cc1C` [VPC-70236], the inhibition at 25 µM under setting [2] was 32%. For `O=C(CCc1c[nH]c2ccccc12)NCc1noc(-c2ccccc2)n1` [VPC-70240], under setting [2], the inhibition at 25 µM stood at 48%. Same read-out and setting: the same measure for `C[C@@H](NC(=O)NC[C@@H](O)COc1cccc(F)c1)c1cccs1` [VPC-70247]: 35%; for `C[C@@H]1CCNC(=O)[C@H]1NC(=O)NCCCc1cccc(Cl)c1` [VPC-70249]: 65%; for `O=C(CNC(=O)C1CCCC1)NC[C@@H](O)COc1cccc2ccccc12` [VPC-70252]: 45%. Still for that read-out and setting: the same measure for `C[C@@H]1CCCC[C@@H]1NC(=O)NCCCn1ccc2ccccc21` [VPC-70255]: 40%. On the same count and under the same terms, the same measure for `C[C@@H](NC1=NS(=O)(=O)c2ccccc21)C(=O)NCCCSc1ccccc1` [VPC-70258]: 34%; for `C[C@@H](CCc1ccc(O)cc1)NC(=O)N[C@H]1CCOC2(CCCC2)C1` [VPC-70261]: 35%. In the case of `O=C(NCCNc1ncccn1)NC[C@@H](O)c1cccc(Cl)c1` [VPC-70263], the inhibition at 25 µM under setting [2] is 32%. For `O=C(NCCOc1cccc(Cl)c1)NCC[C@H](O)C(F)(F)F` [VPC-70266], the inhibition at 25 µM under setting [2] came out at 38%. Regarding `Cc1nc(C(=O)NC[C@@H](O)COCc2ccccc2)c2ccccn12` [VPC-70267], under setting [2], the inhibition at 25 µM stood at 47%.

Consider `COc1ccc2[nH]cc(CCNC(=O)CCc3nc(-c4ccccc4)no3)c2c1` [VPC-70277], for which the IC50 is greater than 25 µM. Besides, the inhibition at 25 µM under setting [3] is 95%. Consider `Cc1ccccc1OC[C@@H](O)C(=O)NCC1(O)C2CC3CC(C2)CC1C3` (some centres unmarked) [VPC-70283], for which the inhibition at 25 µM under setting [2] is 45%. Turning to `C[C@H](CCc1ccccc1)NC(=O)[C@H]1CCCN(C(=O)CCc2c[nH]c3ccccc23)C1` [VPC-70314], the 50% inhibitory concentration (IC50) came to 15 µM. The inhibition at 25 µM under setting [3] worked out at 93%.

Take `NC(=O)CC[C@H](NC(=O)C1(c2ccccc2)CCN(C(=O)[C@@H]2CCCN2)CC1)C(=O)O` [VPC-70318]: the inhibition at 25 µM under setting [2] worked out at 54%.

A word on the inhibition: it is the drop in the measured response relative to a control, in per cent. The IC50 is the concentration at which inhibition is half-maximal.

Source of the values: US12017975B2, “Myc-Max inhibitor compound therapeutics for cancer treatment, methods and uses associated therewith” (THE UNIVERSITY OF BRITISH COLUMBIA, priority 2018, dated 2024).
